pIC50: −log10 of the molar value.
How the values were obtained:
[1] = target: T1, Tyrosine-protein kinase Lck (Homo sapiens, UniProt P06239); assay: Inhibition of p56 Lck tyrosine kinase in Jurkat cells where p56lck autophosphorylation is inhibited.; type: cell-based
[2] = target: T2, Epidermal growth factor receptor (Homo sapiens, UniProt P00533); assay: Inhibition of Epidermal growth factor receptor autophosphorylation.
[3] = target: T1, Tyrosine-protein kinase Lck; assay: Inhibition of p56lck kinase autophosphorylation in Jurkat cells; type: cell-based
[4] = target: T2, Epidermal growth factor receptor
Description: Inhibition of Epidermal growth factor receptor autophosphorylation, 0.05-0.10

T2 sequence (P00533 whole entry): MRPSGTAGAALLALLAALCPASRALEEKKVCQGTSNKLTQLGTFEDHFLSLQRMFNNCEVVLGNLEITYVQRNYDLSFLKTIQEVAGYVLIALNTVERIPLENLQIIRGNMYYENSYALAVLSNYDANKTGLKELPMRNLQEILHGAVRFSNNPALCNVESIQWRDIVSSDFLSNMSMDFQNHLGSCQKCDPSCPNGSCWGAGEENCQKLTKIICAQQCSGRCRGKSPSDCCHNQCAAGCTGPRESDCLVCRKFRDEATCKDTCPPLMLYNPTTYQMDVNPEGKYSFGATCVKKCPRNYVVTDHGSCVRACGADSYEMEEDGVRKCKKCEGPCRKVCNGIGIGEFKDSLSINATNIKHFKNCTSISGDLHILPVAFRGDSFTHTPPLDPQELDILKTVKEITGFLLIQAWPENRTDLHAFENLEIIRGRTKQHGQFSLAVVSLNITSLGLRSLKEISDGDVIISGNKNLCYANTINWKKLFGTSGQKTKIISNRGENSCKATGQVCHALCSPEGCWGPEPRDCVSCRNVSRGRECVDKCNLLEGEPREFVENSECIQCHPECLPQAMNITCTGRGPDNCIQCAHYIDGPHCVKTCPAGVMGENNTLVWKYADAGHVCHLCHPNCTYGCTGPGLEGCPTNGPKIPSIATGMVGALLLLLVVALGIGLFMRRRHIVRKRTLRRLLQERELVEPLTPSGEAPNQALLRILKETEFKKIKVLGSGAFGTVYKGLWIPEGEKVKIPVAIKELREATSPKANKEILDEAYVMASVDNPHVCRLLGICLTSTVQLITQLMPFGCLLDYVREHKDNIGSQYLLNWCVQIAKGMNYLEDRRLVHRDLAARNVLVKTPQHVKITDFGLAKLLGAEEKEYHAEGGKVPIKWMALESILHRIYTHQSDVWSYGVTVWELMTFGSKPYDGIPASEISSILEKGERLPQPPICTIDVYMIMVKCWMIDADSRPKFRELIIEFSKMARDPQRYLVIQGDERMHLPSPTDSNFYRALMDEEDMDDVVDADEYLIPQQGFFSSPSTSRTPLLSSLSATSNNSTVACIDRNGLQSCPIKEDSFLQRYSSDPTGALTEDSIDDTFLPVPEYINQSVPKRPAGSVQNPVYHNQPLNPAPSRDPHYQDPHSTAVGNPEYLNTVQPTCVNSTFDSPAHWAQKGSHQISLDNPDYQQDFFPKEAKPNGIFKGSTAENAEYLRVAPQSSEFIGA
T1 sequence (P06239 whole entry): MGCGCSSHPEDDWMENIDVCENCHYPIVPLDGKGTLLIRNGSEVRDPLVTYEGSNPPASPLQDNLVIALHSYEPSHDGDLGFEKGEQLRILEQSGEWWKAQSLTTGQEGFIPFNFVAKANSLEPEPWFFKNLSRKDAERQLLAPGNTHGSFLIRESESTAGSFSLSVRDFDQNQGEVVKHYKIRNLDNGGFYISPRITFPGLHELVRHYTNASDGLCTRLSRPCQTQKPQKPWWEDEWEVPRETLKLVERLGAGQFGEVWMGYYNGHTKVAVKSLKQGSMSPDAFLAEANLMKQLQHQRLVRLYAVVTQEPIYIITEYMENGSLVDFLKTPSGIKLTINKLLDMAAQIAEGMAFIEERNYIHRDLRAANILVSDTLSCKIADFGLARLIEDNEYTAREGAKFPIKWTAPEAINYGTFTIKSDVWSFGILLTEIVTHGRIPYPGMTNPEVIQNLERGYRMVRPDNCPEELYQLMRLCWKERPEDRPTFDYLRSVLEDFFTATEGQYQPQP

Row | SMILES | pIC50 [1] | pIC50 [2] | further results
1 | COc1ccc(Sc2ncnc3cc(OC)c(OC)cc23)cc1OC | < 4.30 | < 4.30 | –
2 | COc1cc2ncnc(Oc3cccc(Cl)c3)c2cc1OC | – | 7.70 | –
3 | COc1cc2ncnc(Sc3cccc(Cl)c3)c2cc1OC | – | 8.00 | –
4 | COc1cc(Nc2[nH]cnc3ncnc2-3)cc(OC)c1OC | 4.30 | – | –
5 | COc1cc(Nc2[nH]cnc3nncc2-3)cc(OC)c1OC | 5.00 | – | –
6 | COc1cc2ncnc(Nc3cccc(Cl)c3)c2cc1OC | – | – | pIC50 [3]: 5.30
7 | COc1cc2ncnc(Nc3cccc(F)c3)c2cc1OC | 5.00 | – | –
8 | COc1cc2nc(Cl)nc(Nc3cc(OC)c(OC)c(OC)c3)c2cc1OC | < 4.00 | < 4.70 | –
9 | COc1cc2ncnc(Nc3ccccc3)c2cc1OC | – | – | pIC50 [3]: 5.00
10 | COc1ccc2ncnc(Nc3cc(OC)c(OC)c(OC)c3)c2c1 | 5.00 | 7.00 | –
11 | COc1ccc(Nc2ncnc3cc(OC)c(OC)cc23)cc1 | 5.00 | 6.60 | –
12 | COc1cc(Nc2ncnc3c(OC)c(OC)c(OC)cc23)cc(OC)c1OC | < 4.00 | < 4.70 | –
13 | COc1cc(Nc2ncnc3cc(OC)c(OC)cc23)cc(OC)c1 | – | 5.52 | pIC50 ([3]; jurkat): 5.00
14 | COc1cc2ncnc(N(C)c3ccccc3)c2cc1OC | – | – | pIC50 [3]: < 4.00
15 | COc1ccc(Nc2ncnc3cc(OC)c(OC)cc23)cc1OC | – | 6.46 | pIC50 ([1]; jurkat): 5.00
16 | COc1cc(Nc2ncnc3c(C)cc(C)cc23)cc(OC)c1OC | < 4.00 | < 4.70 | –
17 | COc1cc2ncnc(NCc3ccccc3)c2cc1OC | – | 8.40 | –
18 | COc1cc(Nc2ncnc3ccc(Cl)cc23)cc(OC)c1OC | < 4.30 | < 6.00 | –
19 | COc1cc2ncnc(Nc3ccc(O)cc3)c2cc1OC | 5.52 | 7.00 | –
20 | Clc1cccc(Nc2ncnc3ccccc23)c1 | – | – | pIC50 [4]: 7.30; pIC50 [3]: 4.30
21 | COc1cc2ncnc(Nc3ccc4c(c3)CCC4)c2cc1OC | 4.30 | – | –
22 | COc1cc2ncnc(Nc3ccc(N4CCOCC4)cc3)c2cc1OC | < 4.00 | < 6.00 | –
23 | COc1c(C=O)c(O)cc2c1C(=O)c1ccccc1C2=O [DAMNACANTHAL] | 7.77 | – | –
